Measured values: patent US6696064B2 (priority 2000, dated 2004)

Tests used:
normal rat brain = conditions: in vivo
[1] = cited from earlier work
healthy volunteers = conditions: 300 mg single dose i.v. infusion, eleven healthy volunteers; cited from earlier work

In the case of CCN(CC)CCCC(C)Nc1ccnc2cc(Cl)ccc12 (stereo not drawn) [chloroquine], the “effect of chloroquine on histological brain damage in rats that received DT” value (normal rat brain) is given as “did not reduce the histological rain damage”, the “effect of systemic chloroquine on brain damage caused by Tf-CRM107” value (normal rat brain) is given as “completely blocked the brain damage” and the “time to maximum blood levels” value ([1]; after oral administration) is given as 3 to 5 h. The “amounts deposited in brain, times smaller than in other body tissues” value ([1]; in vivo) was 7 to 70 times, the “effects on the electrocardiogram, mean arterial blood pressure, or pulse rate” value (healthy volunteers) was “no effects were seen” and the “side effects during i.v. infusion” value (healthy volunteers) was “only of subjective side effects”.
